IC50 data for 23 molecules are collected here from patent US7179832B2, “Glycogen synthase kinase 3β inhibitor, composition and process for the preparation thereof” (Crystalgenomics, Inc., priority 2003, dated 2007).

Where only a bound is given, the exact number is not on record here.

The target in this assay is GSK-3β (Homo sapiens, UniProt P49841). Description: Assay for GSK-3β inhibiting activity (32P-ATP, phospho-CREB peptide substrate, filter paper, CPM). Format: biochemical. To be noted: GSK-3β inhibiting activity; 100 nM GSK-3β protein, 100 μM phospho-CREB peptide, 100 μM ATP, 30° C. for 1 hour; read-out: IC50.
Chain of GSK-3β (P49841 whole entry): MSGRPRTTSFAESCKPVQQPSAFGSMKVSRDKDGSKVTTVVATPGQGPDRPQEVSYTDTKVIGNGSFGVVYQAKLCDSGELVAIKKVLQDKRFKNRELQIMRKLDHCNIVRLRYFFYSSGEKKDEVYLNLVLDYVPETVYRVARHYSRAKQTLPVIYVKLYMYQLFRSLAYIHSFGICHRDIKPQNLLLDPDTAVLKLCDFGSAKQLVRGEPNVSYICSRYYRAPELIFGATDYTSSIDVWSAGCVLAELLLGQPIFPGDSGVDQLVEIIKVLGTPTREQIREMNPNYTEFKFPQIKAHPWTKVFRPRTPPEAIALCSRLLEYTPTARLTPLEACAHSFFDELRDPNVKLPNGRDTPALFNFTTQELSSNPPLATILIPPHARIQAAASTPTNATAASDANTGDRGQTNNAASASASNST

As for `O=C(NCCCn1cnc(Cl)c1Cl)c1ccc(O)c2nc(-c3ccc(Cl)cc3Cl)[nH]c12` [Compound 182], the IC50 is 0.008 µM. On to `Cc1nccn1CCCNC(=O)c1ccc(O)c2[nH]c(-c3ccc(Cl)cc3Cl)nc12` [Compound 183], for which the IC50 stood at 0.06 µM.

For the molecule `CC(C)c1nccn1CCCNC(=O)c1ccc(O)c2[nH]c(-c3ccc(Cl)cc3Cl)nc12` [Compound 184], the IC50 worked out at 0.15 µM. With `O=C(NCCCn1ccnc1)c1ccc(O)c2[nH]c(-c3ccc(F)cc3)nc12` [Compound 185], the IC50 is more than 1 µM. As for `CC(C)c1nccn1CCCNC(=O)c1ccc(O)c2[nH]c(-c3ccc(F)cc3)nc12` [Compound 186], the IC50 is 0.05 µM. Turning to `Cc1cn(CCCNC(=O)c2ccc(O)c3[nH]c(-c4ccc(F)cc4)nc23)cn1` [Compound 187], the IC50 amounted to 0.01 µM.

With `Cc1nccn1CCCNC(=O)c1ccc(O)c2[nH]c(-c3ccc(F)cc3)nc12` [Compound 188], the IC50 stood at 0.002 µM.

`CCc1nccn1CCCNC(=O)c1ccc(O)c2[nH]c(-c3ccc(F)cc3)nc12` [Compound 189]: the IC50 was more than 1 µM. For `O=C(NCCCn1cnc(Cl)c1Cl)c1ccc(O)c2[nH]c(-c3ccc(F)cc3)nc12` [Compound 190], the IC50 stood at 0.006 µM. Turning to `CC(C)c1nccn1CCCNC(=O)c1ccc(O)c2[nH]c(-c3ccc(F)cc3F)nc12` [Compound 191], the IC50 is 0.09 µM.

For `O=C(NCCCn1ccnc1)c1ccc(O)c2[nH]c(-c3ccc(F)cc3F)nc12` [Compound 192], the IC50 was determined as 0.008 µM.

On to `Cc1cn(CCCNC(=O)c2ccc(O)c3[nH]c(-c4ccc(F)cc4F)nc23)cn1` [Compound 193], for which the IC50 came out at 0.02 µM. Regarding `O=C(NCCCn1cnc(Cl)c1Cl)c1ccc(O)c2[nH]c(-c3ccc(F)cc3F)nc12` [Compound 194], the IC50 was found to be 0.004 µM. As to `Cc1nccn1CCCNC(=O)c1ccc(O)c2[nH]c(-c3ccc(F)cc3F)nc12` [Compound 195], the IC50 worked out at 0.03 µM. The value for `CCc1nccn1CCCNC(=O)c1ccc(O)c2[nH]c(-c3ccc(F)cc3F)nc12` [Compound 196] was 0.02 µM; that for `O=C(NCCCn1cnc(Cl)c1Cl)c1ccc(O)c2[nH]c(-c3ccc(F)cc3F)nc12` [Compound 197] was 0.003 µM; that for `O=C(NCCCn1ccnc1)c1ccc(O)c2[nH]c(-c3ccc(F)cc3Cl)nc12` [Compound 198] was 0.02 µM. Then `Cc1cn(CCCNC(=O)c2ccc(O)c3[nH]c(-c4ccc(F)cc4Cl)nc23)cn1` [Compound 199], with 0.01 µM; and `O=C(NCCCn1cnc(Cl)c1Cl)c1ccc(O)c2[nH]c(-c3ccc(F)cc3Cl)nc12` [Compound 200], with 0.002 µM. Regarding `Cc1nccn1CCCNC(=O)c1ccc(O)c2[nH]c(-c3ccc(F)cc3Cl)nc12` [Compound 201], the IC50 stood at 0.07 µM. The value for `Cc1cn(CCCNC(=O)c2ccc(O)c3[nH]c(-c4ccc(F)c(Cl)c4)nc23)cn1` [Compound 202] was 0.009 µM; that for `O=C(NCCCn1ccnc1)c1ccc(O)c2nc(-c3ccc(F)c(Cl)c3)[nH]c12` [Compound 203] was 0.003 µM. Then `O=C(NCCCn1cnc(Cl)c1Cl)c1ccc(O)c2[nH]c(-c3ccc(NCCN4CCOCC4)cc3)nc12` [Compound 204, 7-hydroxy-2-[4-(2-morpholin-4-yl-ethylamino)-phenyl]-1H-benzoimidazole-4-carboxylic acid [3-(4,5-dichloro-imidazol-1-yl)-propyl]-amide], with more than 5 µM.
